Laboratory results as given in patent EP0241573A1, “Topical agents for inhibiting the melanin generation” (Sansho Seiyaku Co., Ltd., priority 1986, dated 1987).

What was measured:
[1] = according to WHO; cited from earlier work
[2] = tested on: B16 cells derived from the mouse melanoma; assay: Test on B16 cultured cells derived from mouse melanoma: degree of melanin generation (blackening/whitening) observed by the naked eye; type: cell-based; design: key: -: Not whitened at all; +: Slightly whitened; +: Considerably whitened; ++: Whitening clearly descernible; +++: Whitening proceeded to such degree that blackening cannot be observed; settings: culture 5 days at 37°C
Method: I. Test on B16 Cultured Cells Derived from Mouse Melanoma (Testing Method)
Aqueous solution of vitamin E was added 30 µg/ml, 20 µg/ml, 10 µg/ml and 2 µg/ml respectively in final concentration to the culture medium for B16 cells derived from the mouse melanoma. After culture period for 5 days at 37°C, the degree of melanin generation (degree of blackening) was observed by the naked eyes.

mashroom tyrosinase = assay: Mushroom-derived tyrosinase activity inhibition (absorbance increase at 475 nm); type: biochemical; settings: aqueous solutions 0.1, 0.05 and 0.03 µl/ml; tyrosine substrate, pH 6.8, 37°C, 0-15 minutes
Method: Fig. 1 is a figure showing the test results of the tyrosinase activity inhibition by vitamin E solutions on mashroom tyrosinase. In the figure, -▲- stands for the absorbance at 475 nm of an aqueous solution of a concentration of vitamin E of 0.1 µl/ml, -●- for an aqueous solution of concentration of vitamin E of 0.05 µl/ml, -x- for an aqueous solution of a concentration of vitamin E of 0.03 µl/ml and -o- for an aqueous solution containing no vitamin E (control).
a. Test on the Mashroom-derived Tyrosinase Activity Inhibition
Samples were prepared by adding 1.0 ml of aqueous solutions containing vitamin E at concentrations of 0.1 µl/ml, 0.05 µl/ml and 0.03 µl/ml respectively to 1.0 ml of a tyrosine solution (0.3 mg/ml), 0.9 ml of a 0.1 M phosphate buffer (pH 6.8) and 0.1 ml of mashroom tyrosinase (400 U/ml), also a solution containing no vitamin E was prepared as a control, and the increase in absorbance at 475 nm at 37°C for 0-15 minutes was measured.

[3] = target: T1, tyrosinase from a B16 cell homogenate (Mus musculus, UniProt P11344); assay: B16 cell-derived tyrosinase activity inhibition (absorbance increase at 475 nm); type: biochemical; settings: aqueous solutions 0.1, 0.05 and 0.03 µl/ml; 10 mM dopa, pH 6.8, 37°C, 0.15 minutes
T1 construct: 0.1 ml of a 11000 G supernatant of a B16 cell homogenate; endogenous in cells; host or cells: B16 mouse melanoma cells (11000 G supernatant of homogenate)
T1 sequence (P11344 19-533): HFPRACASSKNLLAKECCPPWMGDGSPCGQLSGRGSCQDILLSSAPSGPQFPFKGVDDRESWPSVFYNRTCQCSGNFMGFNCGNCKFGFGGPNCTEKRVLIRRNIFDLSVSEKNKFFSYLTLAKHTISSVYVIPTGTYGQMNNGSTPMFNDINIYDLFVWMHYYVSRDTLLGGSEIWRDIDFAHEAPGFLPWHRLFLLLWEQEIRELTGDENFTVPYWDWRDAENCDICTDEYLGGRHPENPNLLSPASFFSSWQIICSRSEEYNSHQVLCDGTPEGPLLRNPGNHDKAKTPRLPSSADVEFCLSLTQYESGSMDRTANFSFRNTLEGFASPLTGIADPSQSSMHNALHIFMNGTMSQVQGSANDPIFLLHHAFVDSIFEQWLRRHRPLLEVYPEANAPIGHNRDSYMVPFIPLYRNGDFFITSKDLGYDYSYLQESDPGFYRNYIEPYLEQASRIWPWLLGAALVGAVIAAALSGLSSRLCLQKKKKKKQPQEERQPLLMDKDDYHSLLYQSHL
Method: Fig. 2 is a figure showing the test results of the tyrosinase activity inhibition by vitamin E solutions on tyrosinase from a B16 cell homogenate. In the figure, -▲-, -●- ,-x- and -o- have the same significance as in Fig. 1.
b. Test on the B16 cell-derived tyrosinase Activity Inhibition
Samples were prepared respectively by adding 1.0 ml of aqueous solutions containing vitamin E at concentrations of 0.1 µl/ml, 0.05 µl/ml and 0.03 µl/ml prepared in the production examples described hereinbelow to 0.1 ml of a 11000 G supernatant of a B16 cell homogenate, 1.0 ml of a 10 mM dopa and 0.9 ml of a 0.1 M phosphate buffer (pH 6.8), also a solution containing no vitamin E was prepared as a control, and the increase in absorbance at 475 nm at 37°C for […] was measured.

Substance: vitamin E
- acute toxicity [1]: no acute toxicity
- Degree of Whitening ([2]; 10 µg/ml final concentration): +
- Degree of Whitening ([2]; 20 µg/ml final concentration): ++
- Degree of Whitening ([2]; 30 µg/ml final concentration): +++
- effect to inhibit the mashroom tyrosinase (mashroom tyrosinase): not observed
- effect to inhibit the B16 cell tyrosinase [3]: not observed
